Results from US4159384A, “Phenenyltris (carbonylimino)multi-anionic substituted triphenyl acids and salts” (American Cyanamid Company, priority 1978, dated 1979).
Counter-ions that a name gives are not always drawn.

System: shunt pathway
Assay: Test, Code 036 (C-Shunt inhibitor): lysis of fragile human erythrocytes in autologous serum, cobra venom factor
Format: biochemical
Settings: in vitro, appropriate dilutions of the test compound
Excerpt: An active inhibitor protects C2 from C1 and C4; (ii) Test, Code 035 (C3-C9 inhibitor)--This test determines the ability of the late components of human complement (C3-C9) to lyse EAC 142 in the presence of appropriate dilutions of the test compound. An active inhibitor protects EAC 142 from lysis by human C3-C9; (iii) Test, Code 036 (C-Shunt inhibitor)--In this test human erythrocytes rendered fragile are lysed in autologous serum via the shunt pathway activated by cobra venom factor in the presence of appropriate dilutions of the test compound. Inhibition of the shunt pathway results in failure of lysis; (iv) Forssman Vasculitis Test--Here, the well known complement dependent lesion, Forssman vasculitis, is produced in guinea pigs by intradermal injection of rabbit anti-Forssman antiserum. […]

`O=C(Nc1cc(C(=O)O)c(O)c(S(=O)(=O)O)c1)c1cc(C(=O)Nc2cc(C(=O)O)c(O)c(S(=O)(=O)O)c2)cc(C(=O)Nc2cc(C(=O)O)c(O)c(S(=O)(=O)O)c2)c1` [5,5',5"-[s-Phenenyltris(carbonylimino)]tri-3-sulfo salicylic acid trisodium salt] was tested, and the “Shunt Inhibition 036 Wells” value was “+1 Wells”.
